According to publication PMC12030650, “Synthesis, Antitumor Activities, and Apoptosis-Inducing Activities of Schiff’s Bases Incorporating Imidazolidine-2,4-dione Scaffold: Molecular Docking Studies and Enzymatic Inhibition Activities” (Pharmaceuticals, 2025):
Values joined by “and” are separate entries in the source; they are usually repeats but may differ in a detail not shown here. Equal values may be shown once. Read-outs that look alike come from different tables or passages of the source.

What was measured:
[1] = target: T1, EGFR (Homo sapiens, UniProt P00533); design: method as in PMID 31297023; details: read-out: kinase inhibition of EGFR IC50; cited from earlier work
T1 construct: purchased BPS Bioscience 40321

[2] = test system: breast adenocarcinoma (MCF-7); assay: MTT cytotoxicity assay, MCF-7; details: for IC50: Homo sapiens, MCF7, read-out: IC50 MCF-7; for SI (selectivity index) MCF-7: WI-38 vs MCF-7
[3] = test system: WI-38 normal fibroblast cell line; assay: MTT cytotoxicity against normal human cells; assay type: cell-based; details: normal fibroblast WI-38; for IC50: Homo sapiens, read-out: IC50 WI-38
Procedure: The evaluation was conducted using a 3-(4,5-dimethylthiazol-2-yl)-2,5-diphenyltetrazolium bromide (MTT) assay, as described by the authors of [50, 51]. The cell lines were obtained from ATCC. For comparative purposes, standard drugs, such as doxorubicin and erlotinib, were employed.

[4] = test system: human colorectal carcinoma (HCT-116); assay: MTT cytotoxicity assay, HCT-116; details: for IC50: Homo sapiens, HCT-116, read-out: IC50 HCT-116; for SI (selectivity index) HCT-116: WI-38 vs HCT-116
[5] = test system: HCT-116, HePG-2, and MCF-7; assay: MTT cytotoxicity, summary over the examined cancer cell lines; details: Homo sapiens
[6] = target: T2, HER2 (Homo sapiens, UniProt P04626); assay: In vitro luminescent HER2 tyrosine kinase assay (Kinase-Glo Max); assay type: biochemical; details: read-out: Kinase Inhibition IC50 HER2
T2 construct: purchased BPS Bioscience 40721
Procedure: […]. Erlotinib was probed as the standard drug in the EGFR inhibition assay, while lapatinib was tested as the […]. […].
EGFR and HER2 kinase inhibitory activities were determined based on the manufacturer’s guidelines (EGFR Kinase Assay Kit Catalog no. 40321 and HER2 Kinase Assay Kit Catalog no. 40721, BPS Bioscience, San Diego, CA).

[7] = target: T1, EGFR; assay: In vitro luminescent EGFR tyrosine kinase assay (Kinase-Glo Max); assay type: biochemical; details: read-out: Kinase Inhibition IC50 EGFR
[8] = test system: hepatoblastoma (HePG-2); assay: MTT cytotoxicity assay, HePG-2; details: for IC50: Homo sapiens, HepG2, read-out: IC50 HePG-2; for SI (selectivity index) HePG-2: WI-38 vs HePG-2
[9] = test system: anti-apoptotic protein BCL-2 in MCF-7; assay: BCL-2 expression in MCF-7 cells (ELISA); assay type: cell-based, human
Procedure: (§1) Apoptosis is regulated by intrinsic pathways such as the B-cell lymphoma-2 (BCL-2) family. […] MCL-1, one of the BCL-2 family members, is likely to have a significant role in cell death. The expression of MCL-1 and BCL-2 in MCF-7 cells treated with different concentrations was studied.
(§2) Apoptosis of the MCF-7 cancer cell line was measured using the Human MCL1eia kit (ELISA Kit) for the MCL-1 enzyme assay and the Invitrogen Zymed® Bcl-2 ELISA Kit for the BCL-2 enzyme assay. The ROBONIK P2000 ELISA READER was used for analysis.

[10] = test system: MCF-7 cell line; assay: Cell cycle analysis (propidium iodide, flow cytometry); assay type: cell-based, human
Text: Cell cycle analysis is used to quantify DNA content distribution via flow cytometry at various cell cycle stages (pre-G1, G1, S, and G2/M). Compound 24 was selected to analyze its effect on cell cycle progression in the MCF-7 cell line at different concentrations.
Cancer cell line MCF-7 was stained with ab139418_Propidium Iodide (DNA stain) and analyzed using a FACSCalibur flow cytometer.

[11] = test system: anti-apoptotic protein MCL-1 in MCF-7; assay: MCL-1 expression in MCF-7 cells (ELISA); assay type: cell-based, human
Procedure: as §1, §2

[12] = test system: breast cancer cell line MCF-7; design: method as in doi:10.1016/j.rechem.2023.101118; details: cited from earlier work
[13] = test system: various cell lines; design: method as in doi:10.1007/s00044-013-0597-1; details: read-out: cytotoxic effect on various cell lines IC50; cited from earlier work

T1 sequence (P00533 25-1210): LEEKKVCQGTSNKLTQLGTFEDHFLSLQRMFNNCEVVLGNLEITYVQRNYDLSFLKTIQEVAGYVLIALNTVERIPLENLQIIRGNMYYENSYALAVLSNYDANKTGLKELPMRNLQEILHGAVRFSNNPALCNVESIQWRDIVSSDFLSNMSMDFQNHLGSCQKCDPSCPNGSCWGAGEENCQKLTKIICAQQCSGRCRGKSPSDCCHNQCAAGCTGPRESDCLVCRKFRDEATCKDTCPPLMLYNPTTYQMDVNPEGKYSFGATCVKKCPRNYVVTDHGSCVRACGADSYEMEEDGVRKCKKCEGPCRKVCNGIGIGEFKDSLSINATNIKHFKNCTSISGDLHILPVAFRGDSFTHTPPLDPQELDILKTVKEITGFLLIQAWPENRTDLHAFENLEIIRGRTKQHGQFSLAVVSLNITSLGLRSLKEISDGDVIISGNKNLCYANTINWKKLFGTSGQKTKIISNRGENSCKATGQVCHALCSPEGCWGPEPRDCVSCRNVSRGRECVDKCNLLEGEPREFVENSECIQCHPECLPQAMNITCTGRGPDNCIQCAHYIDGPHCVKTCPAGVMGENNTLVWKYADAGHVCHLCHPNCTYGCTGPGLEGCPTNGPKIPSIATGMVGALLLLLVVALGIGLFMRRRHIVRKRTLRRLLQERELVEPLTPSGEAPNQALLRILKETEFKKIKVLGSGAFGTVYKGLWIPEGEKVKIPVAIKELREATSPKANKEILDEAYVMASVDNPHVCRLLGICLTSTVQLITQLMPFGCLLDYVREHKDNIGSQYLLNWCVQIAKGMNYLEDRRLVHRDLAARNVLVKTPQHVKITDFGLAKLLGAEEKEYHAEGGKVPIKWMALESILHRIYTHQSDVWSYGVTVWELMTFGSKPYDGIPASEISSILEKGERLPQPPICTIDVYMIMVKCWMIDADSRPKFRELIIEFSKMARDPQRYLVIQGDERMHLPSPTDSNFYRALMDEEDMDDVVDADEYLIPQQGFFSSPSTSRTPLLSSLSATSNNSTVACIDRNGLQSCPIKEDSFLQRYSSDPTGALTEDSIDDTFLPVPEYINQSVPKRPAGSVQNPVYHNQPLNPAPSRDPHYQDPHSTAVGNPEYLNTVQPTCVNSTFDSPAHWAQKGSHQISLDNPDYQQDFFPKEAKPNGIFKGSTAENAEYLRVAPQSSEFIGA
T2 sequence (P04626 23-1255): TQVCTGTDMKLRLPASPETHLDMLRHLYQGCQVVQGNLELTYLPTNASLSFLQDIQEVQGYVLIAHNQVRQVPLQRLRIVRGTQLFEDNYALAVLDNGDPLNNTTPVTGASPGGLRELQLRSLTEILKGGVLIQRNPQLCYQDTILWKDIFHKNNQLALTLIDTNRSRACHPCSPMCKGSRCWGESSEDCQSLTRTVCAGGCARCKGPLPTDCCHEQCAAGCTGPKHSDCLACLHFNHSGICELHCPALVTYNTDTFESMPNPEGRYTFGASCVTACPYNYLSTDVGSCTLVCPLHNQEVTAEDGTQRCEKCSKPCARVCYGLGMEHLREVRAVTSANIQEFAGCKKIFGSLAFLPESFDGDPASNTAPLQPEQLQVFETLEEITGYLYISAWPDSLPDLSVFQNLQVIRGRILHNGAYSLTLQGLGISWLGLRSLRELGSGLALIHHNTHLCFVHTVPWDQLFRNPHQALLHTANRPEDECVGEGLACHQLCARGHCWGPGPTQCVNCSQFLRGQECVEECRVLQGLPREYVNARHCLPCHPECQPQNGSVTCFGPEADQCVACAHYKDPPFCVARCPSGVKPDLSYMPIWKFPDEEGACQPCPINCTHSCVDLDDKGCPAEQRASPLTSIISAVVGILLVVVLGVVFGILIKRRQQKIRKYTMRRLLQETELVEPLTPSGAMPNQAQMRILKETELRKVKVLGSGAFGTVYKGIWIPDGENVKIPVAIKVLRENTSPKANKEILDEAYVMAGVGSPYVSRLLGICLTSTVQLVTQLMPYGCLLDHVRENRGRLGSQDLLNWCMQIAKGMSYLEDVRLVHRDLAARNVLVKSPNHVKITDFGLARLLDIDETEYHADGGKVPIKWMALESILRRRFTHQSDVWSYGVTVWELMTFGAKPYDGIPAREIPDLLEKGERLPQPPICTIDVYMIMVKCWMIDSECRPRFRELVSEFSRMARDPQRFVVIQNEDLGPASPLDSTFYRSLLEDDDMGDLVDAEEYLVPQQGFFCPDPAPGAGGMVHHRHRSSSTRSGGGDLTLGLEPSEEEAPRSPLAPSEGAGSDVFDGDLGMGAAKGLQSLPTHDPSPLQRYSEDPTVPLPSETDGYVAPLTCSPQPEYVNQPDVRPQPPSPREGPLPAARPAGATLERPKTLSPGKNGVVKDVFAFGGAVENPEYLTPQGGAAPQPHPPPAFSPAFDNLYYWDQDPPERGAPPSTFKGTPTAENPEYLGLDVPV

Row | IC50 [6] | IC50 [7] | Compound | IC50 [2] | SI (selectivity index) MCF-7 [2] | IC50 [3] | IC50 WI-38 [3] | IC50 [4] | SI (selectivity index) HCT-116 [4] | IC50 [8] | SI (selectivity index) HePG-2 [8] | further results
1 | – | – | O=C(CN1C(=O)NC(c2ccccc2)(c2ccccc2)C1=O)N/N=C/c1c[nH]c2ccccc12 [Compound 1] | – | – | – | – | – | – | – | – | IC50 [1]: 0.1 µM
2 | 0.71 ± 0.02 µM | 0.67 ± 0.03 µM | CC(=NNC(=O)CN1C(=O)NC(c2ccccc2)(c2ccccc2)C1=O)c1ccc(Cl)cc1 [Compound 10, N′-(1-(4-Chlorophenyl)ethylidene)-2-(2,5-dioxo-4,4-diphenylimidazolidin-1-yl)acetohydrazide] | 11.2 ± 0.9 µM | 4.8 and 4.84 | 54.2 µM | low cytotoxicity | 17.9 ± 1.4 µM | 3.0 and 3.02 | 10.7 ± 0.9 µM | 5.0 and 5.07 | IC50 ([5]; read-out: average IC50 versus the examined cell lines): 13.2 µM
3 | 0.04 ± 0.001 µM | 0.07 ± 0.004 µM | CC(=NNC(=O)CN1C(=O)NC(c2ccccc2)(c2ccccc2)C1=O)c1ccc2ccccc2c1 [Compound 24, 2-(2,5-Dioxo-4,4-diphenylimidazolidin-1-yl)-N′-(1-(naphthalen-2-yl)ethylidene)acetohydrazide] | 4.92 ± 0.3 µM | 8.0 and 8.03 | 39.5 µM | low cytotoxicity | 12.8 ± 0.9 µM | 3.0 and 3.08 | 9.07 ± 0.8 µM | 4.3 and 4.35 | IC50 ([5]; read-out: IC50 range against the selected cell lines): 4.92 to 20.1 µM; BCL-2 expression level ([9]; 2 µM): 15.55 ng/mL; BCL-2 expression level ([9]; 10 μM): 8.60 ng/mL and 8.598 ± 0.29 ng/mL; Comment (cell cycle arrest) [10]: cell cycle arrest appeared at the G2/M phase; %G0–G1 ([10]; 2 µM): 52.12%; %G2/M ([10]; 2 µM): 25.43%; %S ([10]; 2 µM): 22.45%; %G0–G1 ([10]; 10 μM): 50.61%; %G2/M ([10]; 10 μM): 33.46%; %S ([10]; 10 μM): 15.93%; MCL-1 expression level ([11]; 2 µM): 715.62 pg/mL; MCL-1 expression level ([11]; 10 μM): 261.20 pg/mL and 261.20 ± 8.97 pg/mL
4 | – | – | O=C(CN1C(=O)NC(c2ccccc2)(c2ccccc2)C1=O)Nc1ccc(S(=O)(=O)Nc2ccccn2)cc1 [Compound 3] | – | – | – | – | – | – | – | – | inhibition of the breast cancer cell line MCF-7 [12]: around 74%
5 | – | – | O=C(CN1C(=O)NC(c2ccccc2)(c2ccccc2)C1=O)c1ccc(N2CCCCC2)cc1 [Compound 2] | – | – | – | – | – | – | – | – | IC50 [13]: 10 µM
